# Experimental data from US10869849B2, “Substituted aromatic compounds and pharmaceutical compositions for tissue self-repair and regeneration” (Liminal BioSciences Limited, priority 2014, dated 2020).
# Counter-ions that a name gives are not always drawn.
# Key:
# [1] = system: Hepatocyte Growth Factor (HGF); experiment: HGF mRNA expression in TGF-β1-treated normal human dermal fibroblasts (real-time PCR); type: cell-based; conditions: NHDF + rhTGF-β1 (10 ng/ml), 24 h, TGF-β1 control = 1.00, untreated = 7.23, read-out: HGF Relative Quantitation; for fold induction at 250 µM: compound 250 μM; for fold induction at 100 µM: compound 100 μM
# [2] = system: Hepatocyte Growth Factor (HGF); experiment: as above; type: cell-based; conditions: compound 500 μM, 24 h; for fold induction at 500 µM: Homo sapiens, NHDF + rhTGF-β1 (10 ng/ml), TGF-β1 control = 1.00, untreated = 7.23, read-out: HGF Relative Quantitation
# Procedure: (§1) Experiments were undertaken to determine the effect of compounds on hepatocyte growth factor expression in vitro normal human dermal fibroblasts (NHDF) from adult donor (Clonetics #CC-2511). NHDF were starved overnight in DMEM/F12+0.5% FBS and treated with or without rhTGF-β1 (10 ng/ml) and compound I (500 μM) for 24 h. RNA was isolated with miRNeasy® kit (QIAGEN®), including on-column DNase digestion step. cDNA synthesis was done (0.5 μg RNA/reaction) using the RT^2 First Strand kit (QIAGEN® #330401). Real-Time PCR was performed as described in the RT^2 Profiler PCR Array handbook on a AB-7900HT real-time cycler. Real-Time PCR data was analyzed using the ΔΔCt method on the RT^2 Profiler PCR Array Data Analysis Web Portal. All Ct values >35 or non amplified were changed to the cut-off value of 35. The housekeeping genes used for normalization are GAPDH and RPLP0. The control group is TGF-β1 treated cells.
# Serpin A1 (AAT) = experiment: AAT mRNA expression, qPCR-panel on NHDF (FIG. 4); type: cell-based, human; conditions: injured NHDF cells
# Procedure: as §1, with “cells. As mentioned above, AAT can induce nerve regeneration. […] Compound I is representative of the compounds of formula I disclosed herein. Therefore, the compounds of formula I disclosed herein may increase regeneration of nerves via the production of endogenous AAT at the site of injury.” for “cells.”
# [3] = system: LOX, MMP13, PLAU (uPA), serpin E1, TIMP3 and ILK; experiment: Expression of regeneration markers in TGF-β1-injured NHDF (FIG. 2); type: cell-based, human; conditions: rhTGF-β1 (10 ng/ml), compound 500 μM, 24 h
# Procedure: as §1, with “cells. An experiment was undertaken to determine the effect of compounds on the expression of regeneration markers. This experiment was performed with NHDF (Normal Human Dermal Fibroblasts) and human epithelial cells (renal tubular epithelial cells, HK-2) involved in tissue regeneration after single, multiple or constant injury. Injury was simulated by incubation of the cells with TGF-β1. […]” for “cells.”
# [4] = system: LOX, MMP1, MMP2, MMP9, MMP13, TIMP3 and PLAT (tPA); experiment: Expression of regeneration markers in TGF-β1-injured HK-2 epithelial cells (FIG. 3); type: cell-based, human; conditions: HK-2 cells, rhTGF-β1 (10 ng/ml), compound 500 μM, 24 h
# injured kidney = experiment: Organ function (GFR) of an injured kidney (FIG. 5); type: in vivo
smiles,measurement,setting,value
"CCCCCc1cccc(CC(=O)O)c1F [Compound XI, Sodium Salt of 2-(2-Fluoro-3-pentylphenyl)acetic acid]",fold induction at 250 µM,[1],3.38
"CCCCCc1cccc(CCC(=O)O)c1 [Compound II, Sodium Salt of 3-(3-pentylphenyl)propionic acid]",fold induction at 250 µM,[1],1.37
"CCCC/C=C/c1cccc(CC(=O)O)c1 [Compound V, Sodium Salt of 2-(3-(Hex-1-enyl]phenyl)acetic acid]",fold induction at 100 µM,[1],2.73
"CCCCCc1cc(CC(=O)O)ccc1O [Compound VIII, Sodium Salt of 2-(4-Hydroxy-3-pentylphenyl)acetic acid]",fold induction at 500 µM,[2],1.44
"CCCCc1cccc(CCC(=O)O)c1 [Compound III, Sodium Salt of 3-(3-butylphenyl)propionic acid]",fold induction at 500 µM,[2],2.41
"CCCCCc1cc(CC(=O)O)cc(CCCCC)c1O [Compound XVIII, Sodium Salt of 2-(4-Hydroxy-3,5-dipentylphenyl)acetic acid]",fold induction at 25 µM,[1]; compound 25 μM,1.4
"CCCCCc1cc(F)cc(CC(=O)O)c1 [Compound X, Sodium Salt of 2-(3-fluoro-5-pentylphenyl)acetic acid]",fold induction at 250 µM,[1],3.06
"CCCCCc1cc(CCCCC)c(F)c(CC(=O)O)c1 [Compound XXXII, Sodium Salt of 2-(2-Fluoro-3,5-dipentylphenyl)acetic Acid]",fold induction at 10 µM,[1]; compound 10 μM,1.73
"CCCCCc1cccc(CC(=O)[O-])c1.[Na+] [Compound I, Sodium Salt of (3-pentylphenyl)acetic acid]",AAT mRNA expression,Serpin A1 (AAT),increase AAT mRNA expression
same,fold induction at 500 µM,[2],4.23
same,"expression of HGF (FIG. 1), result in words","[2]; NHDF, rhTGF-β1 (10 ng/ml)",increases the expression of HGF
same,"expression level of regeneration markers LOX, MMP13, PLAU (uPA), serpin E1, TIMP3 and ILK",[3],all expressed at a normal level
same,"expression level of regeneration markers LOX, MMP1, MMP2, MMP9, MMP13, TIMP3 and PLAT (tPA)",[4],all expressed at a level close to the normal level observed in healthy cells
same,organ function (GFR),injured kidney,increase in organ function (GFR)
"CCCCCc1cc(CCCCC)cc(CC(=O)[O-])c1.[Na+] [Compound XIV, Sodium 2-[3,5-Dipentylphenyl]acetate]",melting point,,225 to 230 °C
"CCC/C=C/c1cccc(CC(=O)O)c1 [Compound IV, Sodium Salt of E-(3-pent-1-enyl-phenyl)acetic acid]",fold induction at 500 µM,[2],3.8
"CCCCCc1cc(CC(=O)O)ccc1F [Compound XII, Sodium Salt of 2-(4-Fluoro-3-pentylphenyl)acetic acid]",fold induction at 500 µM,[2],2.47
"CCCCCc1cc(CCCCC)cc(C(C)(C)C(=O)O)c1 [Compound XXXIII, Sodium Salt of 2-(3,5-Dipentylphenyl)-2-methylpropanoic Acid]",fold induction at 6 µM,[1]; compound 6 μM,1.54
"CCCCCCc1cccc(CC(=O)O)c1 [Compound VI, Sodium Salt of 2-(3-Hexylphenyl)acetic acid]",fold induction at 100 µM,[1],2.77
"CCCCCc1cc(O)cc(CC(=O)O)c1 [Compound VII, Sodium Salt of 3-hydroxy-5-pentylphenylacetic acid]",fold induction at 500 µM,[2],2.66
"CCCCCc1cccc(C(F)C(=O)O)c1 (racemic) [Compound XIII, Sodium Salt of (RS)-2-Fluoro-2-(3-pentylphenyl)acetic acid]",fold induction at 500 µM,[2],1.71
